Experimental data as given in patent US20230090094A1, “HEMP EXTRACT FOR TREATMENT OF PAIN, CANCER AND EPILEPSY IN ANIMALS” (ElleVet Sciences, priority 2019, published 2023).
“And” between values parts separate entries of the source, which are not always exact repeats. Equal values may be shown once. Marks after values point to notes of the source that are not given here.

Key:
[1] = Feline serum cannabidiol quantification and pharmacokinetics (LC-MS/MS); format: in vivo, cats; details: for Cannabidiol in serum: individual cats, replicates A/B, ppb = ng/mL, LOD 1.9, LOQ 6.2
Procedure: On the first day of dosing, blood was collected for a PK analysis from 6 of the 8 cats. The most cooperative cats were selected for the PK analysis. […] Samples were placed into a red top clotting tube with no serum separator. […] The harvested serum was placed in cyrovials stored at −70° C. Each tube was labeled with the cat id, date of collection and collection time point. Samples were shipped overnight on dry ice to the Proteomics & Metabolomics Facility at Colorado State University.
Aliquots of feline serum were delivered to the facility on dry ice and stored at −80° C. upon receipt. […] of cold (−20C.) 100% Acetonitrile (spiked with 60 ng/mL of d3-CBD) was added to each sample and vortexed at room temperature for 5 minutes. 200 μL of water was added and vortexed for an additional 5 minutes. 1 ml of 100% hexane was then added to each sample and vortexed for a final 5 minutes. […] The upper hexane layer was transferred to new-labeled glass vials (˜900 uL per sample), carefully avoiding the middle and lower layers.
An 8 point standard curve of CBD was generated in matrix background using a blank serum. Concentrations ranged from 0 ng/mL 1000 ng/mL (3.2X dilution series). 50 uL of each spiked serum sample was extracted as above.
LC-MS/MS was performed on a Waters Acquity M-Class UPLC coupled to a Waters Xevo TQ-S triple quadrupole mass spectrometer. […] Flow rate was 3.0 μL/min and injection volume was 2.0 μL. Samples were held at 6° C. in the autosampler, and the column was operated at 70° C. The MS was operated in selected reaction monitoring (SRM) mode, where a parent ion is selected by the first quadrupole, fragmented in the collision cell, then a fragment ion selected for by the third quadrupole. Product ions, collision energies, and cone voltages were optimized for each analyte by direct injection of individual synthetic standards. Inter-channel delay was set to 3 ms. The MS was operated in positive ionization mode with the capillary voltage set to 3.6 kV. […] Desolvation gas flow was […], cone gas flow was 150 L/hr, and collision gas flow was 0.2 mL/min. Nebulizer pressure (nitrogen) was set to 7 Bar. Argon was used as the collision gas.
Each target analyte was visually inspected for retention time and peak area integration. Peak areas were extracted for target compounds detected in biological samples and normalized to the peak area of the appropriate internal standard in each sample using in-house R Script (TQS-tools). CBD concentrations were calculated in nanograms per milliliter of extract (0.06 mL) and then back calculated to nanograms per mL of serum (0.05 mL of serum).
LOD are calculated based on the standard deviation of the response (Sy) of the 0 point calibration standard (i.e. 0 ng/mL CBD as an estimate on noise) and the slope of the calibration curve (S) at levels approximating the LOD according to the formula: LOD=3*(Sy/S). LOQ=10*(Sy/S).

[2] = Single-dose oral pharmacokinetics of CBD oil in beagles; format: in vivo, dogs; details: industrial hemp
Procedure: The dogs were fed two hours after dosing. […] Attitude, behavior, proprioception, and gait were subjectively evaluated at each time point during free running/walking and navigation around standard traffic cones (weaving). […] Blood samples were obtained via jugular venipuncture and transferred to a coagulation tube for 20 minutes. Samples were centrifuged (VWR, Clinical Centrifuge) at 3,600×g for 10 minutes; serum was removed and stored at −80° C. until analysis using liquid chromatography-mass spectrometry (LC-MS) at Colorado State University Core Mass Spectrometry facility.
CBD was extracted from canine serum using a combination of protein precipitation and liquid-liquid extraction using n-hexane, with minor modifications for microflow ultra-high pressure liquid chromatography (UHPLC). Briefly, 0.05 ml of canine serum was subjected to protein precipitation in the presence of ice-cold acetonitrile (80% final concentration), spiked with deuterated CBD as the internal standard (0.06 mg/ml, CDB-d3 Cerilliant, Round Rock, Tex., USA). 0.2 ml of water was added to each sample prior to the addition of 1.0 ml of hexane to enhance liquid-liquid phase separation. Hexane extract was removed and concentrated to dryness under laboratory nitrogen. Prior to LC-MS analysis, samples were resuspended in 0.06 mL of 100% acetonitrile. A standard curve using the CBD analytical standard was prepared in canine serum non-exposed to CBD and extracted as above.
From the UHPLC-QQQ-MS data, peak areas were extracted for CBD detected in biological samples and normalized to the peak area of the internal standard CBD-d3, in each sample using Skyline as well as an in-house R Script (www.r-project.org). […] Pharmacokinetic variables were estimated by means of non-compartmental analysis, utilizing a pharmacokinetic software package (PK Solution, version 2.0, Montrose, Colo., USA).

Question: What does the source list for `C=C(C)[C@@H]1CCC(C)=C[C@H]1c1c(O)cc(CCCCC)cc1O` [cannabidiol]?
Answer: Cannabidiol in serum ([1]; 60 min after CBD oil 2 mg/kg oral): 24.44 ppb and 26.32 ppb and 44.14 ppb and 45.40 ppb and 28.10 ppb and 31.02 ppb and 378.59 ppb and 535.08 ppb and 32.85 ppb and 34.26 ppb; Cannabidiol in serum ([1]; 4 hr after CBD oil 2 mg/kg oral): 1.69** ppb and 1.82** ppb and 1.53** ppb and 51.48 ppb and 68.31 ppb; Cannabidiol in serum ([1]; 8 hr after CBD oil 2 mg/kg oral): 65.42 ppb and 79.30 ppb and 1.82** ppb and 2.22* ppb and 44.23 ppb and 46.05 ppb and 365.18 ppb and 376.28 ppb and 71.64 ppb and 79.59 ppb; Cannabidiol in serum ([1]; 24 hr after CBD oil 2 mg/kg oral): 42.76 ppb and 44.88 ppb and 141.92 ppb and 147.74 ppb and 10.28 ppb and 10.31 ppb and 13.95 ppb and 17.17 ppb and 0.18** ppb and 0.36** ppb and 33.12 ppb and 35.88 ppb; AUC(0-t) ([1]; serum, po, 2 mg/kg): 154 ng·h/mL; Average retention time ([2]; dosing at 2 mg/kg): 6 h; Peak concentration ([2]; dosing at 2 mg/kg, average 20 mg total dose): approximately 100 ug/kg; Total absorption ([2]; oral dosing at 2 mg/kg): less than 20%
